{"source": "patent US20080201790A1", "about": "“Method and product for regulating cell responsiveness to external signals” (priority 1993, published 2008)", "key": {"[1]": {"test_system": "L929 cells", "assay": "Neutral red cell viability assay of L929 cells treated with TNFα and/or bFGF", "type": "cell-based, murine", "details": "L929 cells", "experimental": "In panel A cells were treated with the indicated concentrations of TNFα for 15 hours and were assayed for uptake of neutral red. In panel B cells were untreated (solid bars), treated with 0.5 ng/ml bFGF (dotted bars) or 5.0 ng/ml bFGF (hatched bars) and the indicated concentrations of TNFα for 18 hours. Cell viability was assessed by neutral red assay.\nIn panel A serum starved L929 cells were untreated or treated for 1 hour at 37° C. with the MEK-1 inhibitor (PD) and then unstimulated or stimulated with bFGF. MAPK activity was measured. In panel B L929 cells were untreated or treated for 1 hour at 37° C. with PD and then were untreated or treated with TNFα alone or in combination with bFGF for 18 hours. Cell viability was assessed by neutral red assay.\nCell lines and culture. L929 cells (ATCC CCL1 were maintained in Dulbecco's modified Eagle's medium with 5% newborn calf serum and 5% bovine calf serum (BCS) supplemented with 100 ug/ml streptomycin and 100 U/ml penicillin. The cells were grown in 10 cm dishes at 37° C. in 7.5% CO2. Cells were made quiescent where indicated by incubation in Dulbecco's modified Eagle's medium and 0.1% bovine serum albumin for 24 h. Recombinant murine TNFα and recombinant human bFGF (147aa) were from R&D Systems, Minneapolis, Minn. Cells were pretreated where indicated with the MEK-1 inhibitor PD#098059 (Parke-Davis Pharmaceutical Corp. Ann Arbor, Mich.) for 1 h at 37° C. Cells were stimulated by incubation with the indicated cytokine or growth factor for various times at 37° C. Stimulation was stopped by rinsing the plates twice with ice cold phosphate buffered saline (PBS) and lysing the cells in the appropriate lysis buffer. Cells were scraped from the plates and nuclei were pelleted for 10 min at 14,000 RPM in a microcentrifuge. JNK assay. JNK activity was measured using a solid state kinase assay in which glutathione S-transferase-c-Jun (1-79) (GST-JUN) cound to glutathione-Sepharose 4B beads was used to affinity purify JNK and then JNK activity was measured in an in vitro kinase assay using the sepharose bound GST-Jun as a substrate (Hibi, M., et al. (1993) Genes & Development 7:2135-2148). Stimulated or unstimulated cells were lysed in 0.5% Nonidet P-40, 20 mM HEPES pH 7.2, 100 mM NaCl, 2 mM dithiothreitol, 1 mM EDTA, 1.0 mM phenylmethylsulfonylfluoride, 1 μg/ml aprotinin and the nuclei pelleted. Lysates were normalized for protein content. JNK was affinity purified from 50-100 μg of cell lysate by the addition of 10 ul of GST-Jun sepharose slurry (2 μg GST-Jun). Binding to GST-Jun efficiently isolates the two major forms of JNK (p45 and p55) and under the conditions used JNK isolation was linear for 10-250 μg of cell lysate. The lysates were rotated at 4° C. for 1-3 h. Beads were washed twice in lysis buffer and then twice in PAN (10 mM PIPES, pH 7.0, 100 mM NaCl, 21 μg/ml aprotinin). Kinase reactions were carried out at 30° C. for 15 min in 20 mM Hepes pH 7.2, 20 mM β-glycerophosphate, 10 mM p-nitrophenyl phosphate, 10 mM MgCl2, 1 mM dithiothreitol, 50 μm sodium vanadate, 10 μCi γ^32P-ATP 4300 Ci/mmole. The kinase reaction was linear from 0-30 min. MAPK Assay MAPK activity was measured exactly as described previously (Gardner, A. M., et al. (1994) Meth. Enzymol. 238:258-270) with the exception that MonoQ FPLC fractionation was replaced by step elution from a DEAE-Sephacel column using 0.5 M NaCl in loading buffer. The eluate was assayed in triplicate using the epidermal growth factor receptor 662-681 peptide (EGFR662-681) as a selective substrate for MAPK activity (Heasley, L. E., et al. (1994) American Journal of Physiology (Renal Fluid Electrolyte Physiol. 36) 267:F366-F373). […]"}, "[2]": {"test_system": "JNK", "assay": "JNK solid state kinase assay (GST-Jun) in L929 cells", "type": "cell-based, murine", "details": "not shown", "experimental": "(§1) In panel A cells were treated for 10 minutes with the indicated concentration of TNFα. JNK activation was measured using a solid phase kinase assay resulting in phosphorylation of GST-Jun. In […] the time course of MAPK activation is shown. MAPK was isolated from cell lysates on DEAE sephacel columns and MAPK activation was measured by phosphorylation of the EGFR peptide substrate. Panel C depicts the concentration curve of MAPK activation by TNFα. Cells were treated with the indicated concentration of TNFα and MAPK was assayed.\n(§2) Cell lines and culture. L929 cells (ATCC CCL1 were maintained in Dulbecco's modified Eagle's medium with 5% newborn calf serum and 5% bovine calf serum (BCS) supplemented with 100 ug/ml streptomycin and 100 U/ml penicillin. The cells were grown in 10 cm dishes at 37° C. in 7.5% CO2. Cells were made quiescent where indicated by incubation in Dulbecco's modified Eagle's medium and 0.1% bovine serum albumin for 24 h. Recombinant murine TNFα and recombinant human bFGF (147aa) were from R&D Systems, Minneapolis, Minn. Cells were pretreated where indicated with the MEK-1 inhibitor PD#098059 (Parke-Davis Pharmaceutical Corp. Ann Arbor, Mich.) for 1 h at 37° C. Cells were stimulated by incubation with the indicated cytokine or growth factor for various times at 37° C. Stimulation was stopped by rinsing the plates twice with ice cold phosphate buffered saline (PBS) and lysing the cells in the appropriate lysis buffer. Cells were scraped from the plates and nuclei were pelleted for 10 min at 14,000 RPM in a microcentrifuge. JNK assay. JNK activity was measured using a solid state kinase assay in which glutathione S-transferase-c-Jun (1-79) (GST-JUN) cound to glutathione-Sepharose 4B beads was used to affinity purify JNK and then JNK activity was measured in an in vitro kinase assay using the sepharose bound GST-Jun as a substrate (Hibi, M., et al. (1993) Genes & Development 7:2135-2148). Stimulated or unstimulated cells were lysed in 0.5% Nonidet P-40, 20 mM HEPES pH 7.2, 100 mM NaCl, 2 mM dithiothreitol, 1 mM EDTA, 1.0 mM phenylmethylsulfonylfluoride, 1 μg/ml aprotinin and the nuclei pelleted. Lysates were normalized for protein content. JNK was affinity purified from 50-100 μg of cell lysate by the addition of 10 ul of GST-Jun sepharose slurry (2 μg GST-Jun). Binding to GST-Jun efficiently isolates the two major forms of JNK (p45 and p55) and under the conditions used JNK isolation was linear for 10-250 μg of cell lysate. The lysates were rotated at 4° C. for 1-3 h. Beads were washed twice in lysis buffer and then twice in PAN (10 mM PIPES, pH 7.0, 100 mM NaCl, 21 μg/ml aprotinin). Kinase reactions were carried out at 30° C. for 15 min in 20 mM Hepes pH 7.2, 20 mM β-glycerophosphate, 10 mM p-nitrophenyl phosphate, 10 mM MgCl2, 1 mM dithiothreitol, 50 μm sodium vanadate, 10 μCi γ^32P-ATP 4300 Ci/mmole. The kinase reaction was linear from 0-30 min. MAPK Assay MAPK activity was measured exactly as described previously (Gardner, A. M., et al. (1994) Meth. Enzymol. 238:258-270) with the exception that MonoQ FPLC fractionation was replaced by step elution from a DEAE-Sephacel column using 0.5 M NaCl in loading buffer. The eluate was assayed in triplicate using the epidermal growth factor receptor 662-681 peptide (EGFR662-681) as a selective substrate for MAPK activity (Heasley, L. E., et al. (1994) American Journal of Physiology (Renal Fluid Electrolyte Physiol. 36) 267:F366-F373). […] Cells were lysed by scraping in ice cold RIPA buffer (50 mM Tris-HCl, pH 7.2, 150 mM NaCl, 0.1% SDS, 0.5% sodium deoxycholate, 1.0% Triton X-100, 10 mM sodium pyrophosphate, 25 mM β-glycerophosphate, 2 mM sodium vanadate, 2.1 μg/ml aprotinin) and the nuclei were pelletted. […]"}, "[3]": {"test_system": "p42/p44 MAPK", "assay": "MAPK assay (DEAE-Sephacel, EGFR662-681 peptide) in L929 cells", "type": "cell-based, murine", "details": "L929 cells", "experimental": "as §1\nFIG. 26 depicts the activation of MAPK by bFGF in L929 cells. Serum starved L929 cells were stimulated for 10 min with the indicated concentration of bFGF.\nas §2"}, "[4]": {"molecular_target": "MEK-1 (Homo sapiens, UniProt Q02750)", "sequence (Q02750 whole entry, species assumed)": "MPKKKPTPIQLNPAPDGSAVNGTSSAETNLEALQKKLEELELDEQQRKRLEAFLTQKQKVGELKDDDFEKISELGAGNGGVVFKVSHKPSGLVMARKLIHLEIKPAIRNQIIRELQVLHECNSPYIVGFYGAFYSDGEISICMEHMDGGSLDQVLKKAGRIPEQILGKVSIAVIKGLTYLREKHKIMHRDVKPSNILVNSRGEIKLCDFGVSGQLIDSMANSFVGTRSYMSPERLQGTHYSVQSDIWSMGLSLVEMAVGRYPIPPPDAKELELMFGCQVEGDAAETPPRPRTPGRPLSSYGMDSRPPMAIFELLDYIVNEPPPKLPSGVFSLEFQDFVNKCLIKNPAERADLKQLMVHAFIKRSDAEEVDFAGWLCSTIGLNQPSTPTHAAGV", "details": "Alessi et al. 1995; cited from earlier work"}}, "data": [{"smiles": "COc1cccc(-c2cc(=O)c3ccccc3o2)c1N", "note": "[PD #098059, reference compound]", "values": [{"measurement": "effect on TNFα-mediated cell death", "setting": "[1]", "result": "had no effect on TNFα-mediated apoptosis"}, {"measurement": "effect on the protective action of bFGF against TNFα", "setting": "[1]", "result": "inhibited the protective action of bFGF"}, {"measurement": "inhibition of JNK kinase / activation of JNK", "setting": "[2]", "result": "did not inhibit JNK kinase or the activation of JNK"}, {"measurement": "effect on bFGF stimulation of MAPK activity", "setting": "[3]", "result": "inhibited bFGF stimulation of MAPK activity"}, {"measurement": "inhibition of MEK-1", "setting": "[4]", "result": "inhibits the dual specificity protein kinase, MEK-1"}]}]}
